According to patent US20250230193A1, “CYCLIC COMPOUND HAVING SELECTIVE KRAS INHIBITORY EFFECT ON HRAS AND NRAS” (CHUGAI SEIYAKU KABUSHIKI KAISHA, priority 2022, published 2025):
*1 amine or outer side, *2 acyl side, *3 side chain or, on linkers, in order; H or OH if unused. Where a SMILES comes first, the peptide text is derived from it. Bridges are numbered along the chain shown (N, C = ends). [ ]: non-standard residue; d: D form. The star is where a group is joined. hPhe(3-Cl-4-CF3) = N[C@@H](CCc1ccc(C(F)(F)F)c(Cl)c1)C(=O)O; NPrPhe(4-CF3) = CCCN[C@@H](Cc1ccc(C(F)(F)F)cc1)C(=O)O; X30 = CCN([C@H](C(=O)[*:2])C1CCCC1)[*:1]; NMeGly(cPent) = CN[C@H](C(=O)O)C1CCCC1; Pro(4,4-F2) = O=C(O)[C@@H]1CC(F)(F)CN1; NMeD = CN[C@@H](CC(=O)O)C(=O)O; NMeL = CN[C@@H](CC(C)C)C(=O)O; Morpholide = C1CN(*)CCO1; Ac5c = NC1(C(=O)O)CCCC1; Ac4c = NC1(C(=O)O)CCC1; NEtG = CCNCC(=O)O; Sar = CNCC(=O)O

Tests used:
[1] = biological target: GDP-bound HRAS wild-type protein (Homo sapiens, UniProt P01112); test: Binding to HRAS by surface plasmon resonance (SPR), Single Cycle Kinetics; details: for HRAS/KRAS (ratio of KD for GDP-bound HRAS wild-type to KD for KRAS) / HRAS/KRAS (ratio of KD value with respect to HRAS to KD value with respect to KRAS): SPR; for HRAS/KRAS (ratio of KD value with respect to HRAS to KD value with respect to KRAS): GDP-bound HRAS wild-type vs GDP-bound KRAS wild-type
Chain of GDP-bound HRAS wild-type protein (P01112 whole entry): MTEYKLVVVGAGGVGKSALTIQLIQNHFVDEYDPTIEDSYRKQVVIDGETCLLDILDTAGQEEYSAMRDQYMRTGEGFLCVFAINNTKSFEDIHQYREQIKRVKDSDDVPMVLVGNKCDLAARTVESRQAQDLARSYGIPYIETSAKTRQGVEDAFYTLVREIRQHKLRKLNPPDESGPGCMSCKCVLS

[2] = biological target: GDP-bound NRAS wild-type protein (Homo sapiens, UniProt P01111); test: Binding to NRAS by surface plasmon resonance (SPR), Single Cycle Kinetics; details: for NRAS/KRAS (ratio of KD for GDP-bound NRAS wild-type to KD for KRAS) / NRAS/KRAS (ratio of KD value with respect to NRAS to KD value with respect to KRAS): SPR; for NRAS/KRAS (ratio of KD value with respect to NRAS to KD value with respect to KRAS): GDP-bound NRAS wild-type vs GDP-bound KRAS wild-type
Chain of GDP-bound NRAS wild-type protein (P01111 whole entry): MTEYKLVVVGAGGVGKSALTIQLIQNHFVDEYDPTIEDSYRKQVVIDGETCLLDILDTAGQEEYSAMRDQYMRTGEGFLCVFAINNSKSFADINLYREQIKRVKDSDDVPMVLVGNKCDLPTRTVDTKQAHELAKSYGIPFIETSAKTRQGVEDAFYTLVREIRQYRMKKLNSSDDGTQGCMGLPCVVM

SMILES | HRAS/KRAS (ratio of KD for GDP-bound HRAS wild-type to KD for KRAS) ([1]; KD ratio HRAS/KRAS) | NRAS/KRAS (ratio of KD for GDP-bound NRAS wild-type to KD for KRAS) ([2]; KD ratio NRAS/KRAS) | other results
CC[C@H](C)[C@@H]1NC(=O)[C@H](CC(C)C)N(C)C(=O)C[C@@H](C(=O)N2CCOCC2)N(C)C(=O)[C@H](C2CCCC2)N(C)C(=O)C2(CCCC2)NC(=O)[C@@H]2CCCN2C(=O)[C@H](CCc2ccc(C(F)(F)F)c(Cl)c2)NC(=O)CN(C)C(=O)[C@H](C2CCCC2)N(CC)C(=O)CN(C)C(=O)CN(C)C1=O [PP0024] ([NMeL]I[Sar][Sar][X30][Sar][hPhe(3-Cl-4-CF3)]P[Ac5c][NMeGly(cPent)][NMeD]-Morpholide; lactam N-11) | C (A compound having a KD ratio of 0.1 or more and less than 3 is denoted as C) | B (a compound having 3 or more and less than 10 is denoted as B) | –
CCCN1C(=O)CN(C)C(=O)CN(C)C(=O)[C@H]([C@@H](C)CC)NC(=O)[C@H](CC(C)C)N(C)C(=O)C[C@@H](C(=O)N2CCOCC2)N(C)C(=O)[C@H](C2CCCC2)N(C)C(=O)C2(CCCC2)NC(=O)CN(C)C(=O)[C@H](CCc2ccc(C(F)(F)F)c(Cl)c2)NC(=O)CN(C)C(=O)[C@@H]1Cc1ccc(C(F)(F)F)cc1 [PP0266] ([NMeL]I[Sar][Sar][NPrPhe(4-CF3)][Sar][hPhe(3-Cl-4-CF3)][Sar][Ac5c][NMeGly(cPent)][NMeD]-Morpholide; lactam N-11) | C (A compound having a KD ratio of 0.1 or more and less than 3 is denoted as C) | B (a compound having 3 or more and less than 10 is denoted as B) | –
CC[C@H](C)[C@@H]1NC(=O)[C@H](C2CC2)N(C)C(=O)C[C@@H](C(=O)N(C)CC)N(C)C(=O)[C@H](C2CCCC2)N(C)C(=O)C2(CCC2)NC(=O)[C@@H]2C[C@H](C)CN2C(=O)[C@H](CCc2ccc(C(F)(F)F)c(OC)c2)NC(=O)CN(C)C(=O)[C@H](Cc2ccc(C(F)(F)F)cc2)N2CC/C=C\C[C@@H](C2=O)N(C)C(=O)CN(C)C1=O [PP2069] | – | – | HRAS/KRAS (ratio of KD value with respect to HRAS to KD value with respect to KRAS) [1]: A (a compound having 10 or more and less than 20 is denoted as A); NRAS/KRAS (ratio of KD value with respect to NRAS to KD value with respect to KRAS) [2]: AA (a compound having 20 or more is denoted as AA)
CCCN1CC(=O)NC2(CCC2)C(=O)N(C)[C@@H](C2CCCC2)C(=O)N(C)[C@H](C(=O)N(C)C)CC(=O)N(C)[C@@H](CC)C(=O)N[C@@H]([C@@H](C)CC)C(=O)N(C)CC(=O)N(C)[C@H]2C/C=C\CCN(C2=O)[C@@H](Cc2ccc(C(F)(F)F)cc2)C(=O)N(C)CC(=O)N[C@@H](CCc2cc(F)c(C(F)(F)F)c(F)c2)C1=O [PP1141] | – | – | HRAS/KRAS (ratio of KD value with respect to HRAS to KD value with respect to KRAS) ([1]; KD ratio): A (a compound having 10 or more and less than 20 is denoted as A); NRAS/KRAS (ratio of KD value with respect to NRAS to KD value with respect to KRAS) ([2]; KD ratio): AA (a compound having 20 or more is denoted as AA)
CCC[C@H]1C(=O)N[C@@H]([C@@H](C)CC)C(=O)N(C)CC(=O)N(C)[C@H]2C/C=C\CCN(C2=O)[C@@H](Cc2ccc(C)cc2)C(=O)N(C)CC(=O)N[C@@H](CCc2cc(F)c(C(F)(F)F)c(F)c2)C(=O)N2C[C@H](OCC)C[C@H]2C(=O)NC2(CC(C)(C)C2)C(=O)N(C)[C@@H](CC2CC2)C(=O)N(C)[C@H](C(=O)N(C)C)CC(=O)N1C [PP2797] | – | – | HRAS/KRAS (ratio of KD value with respect to GDP-bound HRAS wild-type protein to KD value with respect to KRAS) ([1]; KD ratio HRAS/KRAS, class symbols): A (a compound having 10 or more and less than 20 is denoted as A); NRAS/KRAS (ratio of KD value with respect to GDP-bound NRAS wild-type protein to KD value with respect to KRAS) ([2]; KD ratio NRAS/KRAS, class symbols): A (a compound having 10 or more and less than 20 is denoted as A)
CCCN1C(=O)CN(C)C(=O)CN(CC)C(=O)[C@H]([C@@H](C)CC)NC(=O)[C@H](CC(C)C)N(C)C(=O)C[C@@H](C(=O)N(C)C)NC(=O)[C@H](C2CCCC2)N(C)C(=O)C2(CCC2)NC(=O)[C@@H]2CC(F)(F)CN2C(=O)[C@H](CCc2ccc(C(F)(F)F)c(Cl)c2)NC(=O)CN(C)C(=O)[C@@H]1Cc1ccc(C(F)(F)F)cc1 [PP0370] ([NMeL]I[NEtG][Sar][NPrPhe(4-CF3)][Sar][hPhe(3-Cl-4-CF3)][Pro(4,4-F2)][Ac4c][NMeGly(cPent)]D-NMe2; lactam N-11) | C (A compound having a KD ratio of 0.1 or more and less than 3 is denoted as C) | B (a compound having 3 or more and less than 10 is denoted as B) | –
